Results taken from patent US20260317324A1, “BIFUNCTIONAL COMPOUNDS FOR DEGRADING BRAF VIA UBIQUITIN PROTEOSOME PATHWAY” (Nurix Therapeutics, Inc., priority 2023, published 2026).

Experiments:
Assay type in all cases: cell-based
[1] = biological target: T1, BRAF V600E (Homo sapiens, UniProt P15056, V600E); assay: BRAF HiBiT degradation assay, C-terminal HiBiT-tagged BRAF V600E A375 cells (clone 1F10), Nano-Glo HiBiT Lytic assay; details: for Dmax: A-375
T1 construct: endogenous C-terminal HiBiT fusion tag on BRAF V600E allele; endogenous in cells; host or cells: A375 clone 1F10 (CRISPR-Cas9 knock-in of the HiBiT tag; parental A375 from ATCC)
Summary of the method: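 Luminescence from the Nano-Glo HiBiT lytic read-out gave % BRAF V600E remaining versus DMSO-treated tagged cells, with untagged A375 as background. Clone 1F10 cells (10,000/well, 24 h pre-culture) received compound at 1 μM–0.01 nM in half-log steps, 0.2% DMSO; curve fits gave DC50 at Y=50, plus observed Dmax.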

[2] = biological target: T2, BRAF G466V (Homo sapiens, UniProt P15056, G466V); assay: BRAF HiBiT degradation assay, C-terminal HiBiT-tagged BRAF G466V overexpressed in HCT-116 BRAF−/− cells (clone 8), Nano-Glo HiBiT Lytic assay
T2 construct: Horizon Discovery (HCT-116 BRAF−/− cells); host or cells: HCT-116 BRAF−/− cells, clone 8, lentiviral transduction
Summary of the method: (§1)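 Degradation was read by Nano-Glo HiBiT lytic luminescence, normalised to DMSO-treated tagged cells with wildtype HCT-116 as background. Test cells were lentiviral clones of HCT-116 BRAF−/− carrying HiBiT-tagged mutants in RPMI/10% FBS, given compound at 0.01 nM–1 μM in duplicate. Outputs are the curve-fitted concentration giving 50% degradation and the maximal observed degradation.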

[3] = biological target: T3, BRAF G469A (Homo sapiens, UniProt P15056, G469A); assay: BRAF HiBiT degradation assay, C-terminal HiBiT-tagged BRAF G469A overexpressed in HCT-116 BRAF−/− cells (clone 34), Nano-Glo HiBiT Lytic assay
T3 construct: Horizon Discovery (HCT-116 BRAF−/− cells); host or cells: HCT-116 BRAF−/− cells, clone 34, lentiviral transduction
Summary of the method: as §1

[4] = biological target: T4, BRAF D594G (Homo sapiens, UniProt P15056, D594G); assay: BRAF HiBiT degradation assay, C-terminal HiBiT-tagged BRAF D594G overexpressed in HCT-116 BRAF−/− cells (clone 63), Nano-Glo HiBiT Lytic assay
T4 construct: Horizon Discovery (HCT-116 BRAF−/− cells); host or cells: HCT-116 BRAF−/− cells, clone 63, lentiviral transduction
Summary of the method: as §1

[5] = A375 (BRAF V600E, Class 1), DC50 at 50% degradation
[6] = A375 (BRAF V600E, Class 1), observed Dmax, % protein degraded relative to DMSO control
[7] = BRAF G466V (Class 3), HCT-116 BRAF−/− cells, DC50 at 50% degradation
[8] = BRAF G466V (Class 3), HCT-116 BRAF−/− cells, observed Dmax relative to DMSO control
[9] = BRAF G469A (Class 2), HCT-116 BRAF−/− cells, DC50 at 50% degradation
[10] = BRAF G469A (Class 2), HCT-116 BRAF−/− cells, observed Dmax relative to DMSO control
[11] = BRAF D594G (Class 3), HCT-116 BRAF−/− cells, DC50 at 50% degradation
[12] = BRAF D594G (Class 3), HCT-116 BRAF−/− cells, observed Dmax relative to DMSO control
[13] = A375 (BRAF V600E), DC50 at 50%: fitted conc. at Y=50
[14] = A375 (BRAF V600E), percentage protein degraded at maximal compound effect relative to DMSO
[15] = BRAF G466V, DC50 at 50%: fitted conc. at Y=50
[16] = HCT-116, BRAF G466V, percentage protein degraded at maximal compound effect relative to DMSO
[17] = Class 2, BRAF G469A, DC50 at 50%: fitted conc. at Y=50
[18] = HCT-116, Class 2, BRAF G469A, percentage protein degraded at maximal compound effect relative to DMSO
[19] = BRAF D594G, DC50 at 50%: fitted conc. at Y=50
[20] = HCT-116, BRAF D594G, percentage protein degraded at maximal compound effect relative to DMSO

T1 sequence (P15056 whole entry V600E, the tested form may be a part): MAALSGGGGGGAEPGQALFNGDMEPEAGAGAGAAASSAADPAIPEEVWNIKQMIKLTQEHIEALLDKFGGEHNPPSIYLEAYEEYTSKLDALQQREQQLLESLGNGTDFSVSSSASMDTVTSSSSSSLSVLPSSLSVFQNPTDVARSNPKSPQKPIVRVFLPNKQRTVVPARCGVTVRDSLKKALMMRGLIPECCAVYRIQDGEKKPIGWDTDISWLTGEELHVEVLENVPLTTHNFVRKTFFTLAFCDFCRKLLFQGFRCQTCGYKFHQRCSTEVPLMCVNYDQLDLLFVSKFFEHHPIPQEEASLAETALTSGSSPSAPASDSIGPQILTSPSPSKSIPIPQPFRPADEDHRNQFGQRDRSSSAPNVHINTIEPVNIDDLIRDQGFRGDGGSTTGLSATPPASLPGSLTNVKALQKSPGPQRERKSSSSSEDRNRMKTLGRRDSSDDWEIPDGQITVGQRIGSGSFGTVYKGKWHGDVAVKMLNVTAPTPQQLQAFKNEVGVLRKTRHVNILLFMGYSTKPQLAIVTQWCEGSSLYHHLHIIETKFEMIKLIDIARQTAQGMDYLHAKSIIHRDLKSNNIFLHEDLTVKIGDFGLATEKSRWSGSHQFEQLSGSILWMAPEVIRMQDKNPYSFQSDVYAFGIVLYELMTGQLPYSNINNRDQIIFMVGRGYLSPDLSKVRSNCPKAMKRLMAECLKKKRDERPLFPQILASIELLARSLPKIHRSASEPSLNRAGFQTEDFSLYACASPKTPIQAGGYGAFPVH
T4 sequence (P15056 whole entry D594G): as the sequence (P15056 whole entry V600E, the tested form may be a part) above, with D594G, E600V counted along it
T3 sequence (P15056 whole entry G469A): as the sequence (P15056 whole entry V600E, the tested form may be a part) above, with G469A, E600V counted along it
T2 sequence (P15056 whole entry G466V): as the sequence (P15056 whole entry V600E, the tested form may be a part) above, with G466V, E600V counted along it

Compound | DC50 [1, 5] [nM] | Dmax [1, 6] [%] | DC50 [2, 7] [nM] | Dmax [2, 8] [%] | DC50 [3, 9] [nM] | Dmax [3, 10] [%] | DC50 [4, 11] [nM] | Dmax [4, 12] [%] | DC50 [1, 13] [nM] | Dmax [1, 14] [%] | DC50 [2, 15] [nM] | Dmax [2, 16] [%] | DC50 [3, 17] [nM] | Dmax [3, 18] [%] | DC50 [4, 19] [nM] | Dmax [4, 20] [%]
O=C1CC[C@H](c2ccc(N3CCC(CN4CCN(c5ccc(-n6cc(-c7cc(F)cc(NS(=O)(=O)N8CC[C@@H](F)C8)c7F)c(-c7ccncc7)n6)nc5)CC4)CC3)cc2)C(=O)N1 [Compound 302, (3R)—N-{3-[1-(5-{4-[(1-{4-[(3R)-2,6-dioxopiperidin-3-yl]phenyl}piperidin-4-yl)methyl]piperazin-1-yl}pyridin-2-yl)-3-(pyridin-4-yl)-1H-pyrazol-4-yl]-2,5-difluorophenyl}-3-fluoropyrrolidine-1-sulfonamide] | < 10 | > 70 | < 10 | > 70 | 10 to 50 | 30 to 70 | < 10 | > 70 |  |  |  |  |  |  |  | 
CCC(C)S(=O)(=O)Nc1cc(Cl)cc(-c2cn(-c3ccc(N4CCN(CC5CCN(c6ccc([C@H]7CCC(=O)NC7=O)cn6)CC5)CC4)cc3)nc2-c2ccncc2)c1F (mixture of isomers) [Compound 327, (RS)—N-(5-chloro-3-(1-(4-(4-((1-(5-((R)-2,6-dioxopiperidin-3-yl)pyridin-2-yl)piperidin-4-yl)methyl)piperazin-1-yl)phenyl)-3-(pyridin-4-yl)-1H-pyrazol-4-yl)-2-fluorophenyl)butane-2-sulfonamide] | < 10 | > 70 | < 10 | > 70 | 10 to 50 | > 70 | < 10 | > 70 |  |  |  |  |  |  |  | 
CCCS(=O)(=O)Nc1cccc(-c2nc(C(C)(C)C)sc2-c2ccnc(Nc3ccc4c(c3)CCN(C(=O)CN3CCC(c5ccc(NC6CCC(=O)NC6=O)cc5)CC3)C4)n2)c1F (racemic) [Compound 123, Rac-N-[3-(2-tert-butyl-5-{2-[(2-{2-[4-(4-{[(3R)-2,6-dioxopiperidin-3-yl]amino}phenyl)piperidin-1-yl]acetyl}-1,2,3,4-tetrahydroisoquinolin-6-yl)amino]pyrimidin-4-yl}-1,3-thiazol-4-yl)-2-fluorophenyl]propane-1-sulfonamide] |  |  |  |  |  |  |  |  | 10 to 50 | 30 to 70 | > 500 | < 30 | > 500 | < 30 | > 500 | < 30
CCCS(=O)(=O)Nc1cccc(-c2nc(C(C)(C)C)sc2-c2ccnc(Nc3cccc(OC4CCN(CC[C@H]5CCN(c6ccc(C7CCC(=O)NC7=O)cn6)C5)CC4)c3)n2)c1F (mixture of isomers) [Compound 69, N-(3-{2-tert-butyl-5-[2-({3-[(1-{2-[(3S)-1-{5-[(3RS)-2,6-dioxopiperidin-3-yl]pyridin-2-yl}pyrrolidin-3-yl]ethyl}piperidin-4-yl)oxy]phenyl}amino)pyrimidin-4-yl]-1,3-thiazol-4-yl}-2-fluorophenyl)propane-1-sulfonamide] |  |  |  |  |  |  |  |  | 10 to 50 | > 70 | > 500 | 30 to 70 | > 500 | < 30 | > 500 | 30 to 70
C[C@@H]1CN(c2ccc(-n3cc(-c4cc(Cl)cc(NS(=O)(=O)N5CCCC5)c4F)c(-c4ccncc4)n3)cc2)CCN1CC1CCN(c2ccc(N3CCC(=O)NC3=O)cc2)CC1 [Compound 319, N-[5-chloro-3-(1-{4-[(3R)-4-({1-[4-(2,4-dioxo-1,3-diazinan-1-yl)phenyl]piperidin-4-yl}methyl)-3-methylpiperazin-1-yl]phenyl}-3-(pyridin-4-yl)-1H-pyrazol-4-yl)-2-fluorophenyl]pyrrolidine-1-sulfonamide] | < 10 | > 70 | < 10 | > 70 | 50 to 500 | 30 to 70 | < 10 | 30 to 70 |  |  |  |  |  |  |  | 
CCCS(=O)(=O)Nc1cccc(-c2nc(C3CCC4(CC3)CCN(C[C@H]3CC[C@H](Oc5ccc(C6CCC(=O)NC6=O)cn5)CC3)CC4)sc2-c2ccnc(N)n2)c1F (mixture of isomers) [Compound 257, N-{3-[5-(2-aminopyrimidin-4-yl)-2-(3-{[(1r,4r)-4-({5-[(3RS)-2,6-dioxopiperidin-3-yl]pyridin-2-yl}oxy)cyclohexyl]methyl}-3-azaspiro[5.5]undecan-9-yl)-1,3-thiazol-4-yl]-2-fluorophenyl}propane-1-sulfonamide] | 10 to 50 | > 70 | > 500 | < 30 | > 500 | < 30 | > 500 | < 30 |  |  |  |  |  |  |  | 
CCN(C)S(=O)(=O)Nc1cccc(-c2nc(C(C)(C)C)sc2-c2ccnc(Nc3ccc(N4CCN(C(=O)C5CCN(c6ccc(C7CCC(=O)NC7=O)cc6)CC5)CC4)cn3)n2)c1F (racemic) [Compound 36, Rac-(3S)-3-[4-(4-{4-[6-({4-[2-tert-butyl-4-(3-{[ethyl(methyl)sulfamoyl]amino}-2-fluorophenyl)-1,3-thiazol-5-yl]pyrimidin-2-yl}amino)pyridin-3-yl]piperazine-1-carbonyl}piperidin-1-yl)phenyl]piperidine-2,6-dione] |  |  |  |  |  |  |  |  | < 10 | > 70 | > 500 | < 30 | 10 to 50 | 30 to 70 | > 500 | 30 to 70
O=C1CCC(c2ccc(N3CCC(CN4CCN(c5ccc(-n6cc(-c7cc(Cl)cc(NS(=O)(=O)N8CCCC8)c7F)c(-c7ccncc7)n6)cn5)CC4)CC3)nc2)C(=O)N1 (racemic) [Compound 352, Rac-N-{5-chloro-3-[1-(6-{4-[(1-{5-[(3R)-2,6-dioxopiperidin-3-yl]pyridin-2-yl}piperidin-4-yl)methyl]piperazin-1-yl}pyridin-3-yl)-3-(pyridin-4-yl)-1H-pyrazol-4-yl]-2-fluorophenyl}pyrrolidine-1-sulfonamide] | < 10 | > 70 | < 10 | > 70 | < 10 | > 70 | < 10 | 30 to 70 |  |  |  |  |  |  |  | 
CCN(C)S(=O)(=O)Nc1cc(Cl)cc(-c2cn(-c3ccc(N4CCN(CC5CCN(c6ccc([C@H]7CCC(=O)NC7=O)cc6)CC5)CC4)cn3)nc2-c2ccncc2)c1F [Compound 310, (3R)-3-(4-{4-[(4-{6-[4-(5-chloro-3-{[ethyl(methyl)sulfamoyl]amino}-2-fluorophenyl)-3-(pyridin-4-yl)-1H-pyrazol-1-yl]pyridin-3-yl}piperazin-1-yl)methyl]piperidin-1-yl}phenyl)piperidine-2,6-dione] | < 10 | > 70 | 10 to 50 | > 70 | 10 to 50 | 30 to 70 | < 10 | > 70 |  |  |  |  |  |  |  | 
O=C1CC[C@@H](c2ccc(N3CCC(CN4CCN(c5ccc(-n6cc(-c7cc(Cl)cc(NS(=O)(=O)N8CCCC8)c7F)c(-c7ccncc7)n6)nc5)CC4)CC3)nc2)C(=O)N1 [Compound 383, N-{5-chloro-3-[1-(5-{4-[(1-{5-[(3S)-2,6-dioxopiperidin-3-yl]pyridin-2-yl}piperidin-4-yl)methyl]piperazin-1-yl}pyridin-2-yl)-3-(pyridin-4-yl)-1H-pyrazol-4-yl]-2-fluorophenyl}pyrrolidine-1-sulfonamide] | < 10 | > 70 | < 10 | > 70 | 10 to 50 | > 70 | < 10 | > 70 |  |  |  |  |  |  |  | 
